What was measured:
[1] = tested on: antibodies of clinically proven celiac positive samples; assay: Immunological binding assay on Periphilin-1 overlapping peptide array; conditions: Periphilin-1 spanned as overlapping 12 amino acid peptides, signals significant when exceeding background (400) by a factor of 50
Method: Immunological binding assays were performed on an array produced using the materials and methods described in the Examples above. The samples that were used to run the assays included clinically proven celiac positive samples.
The immunoactive regions of Periphilin-1 were determined. With reference to FIG. 17, the microarray substrate including the Periphilin-1 sequence split into 12 amino acid length peptide sequences is shown. […] Determination of background noise, background subtraction, and identification of signals that exceed background noise routine and well within the level of ordinary skill in the microarray binding arts. In this example, the mean background signal intensity was estimated to be 400 and signals were determined to be significant when they exceeded background by a factor of 50.

[2] = tested on: IgA from a celiac positive sample; assay: Antibody assay (B peptides) on peptide array, IgA binding
Method: A peptide array comprising peptide fragment sequences synthesized on the surface of the array was generated according to the methods described above. The peptide array was developed to test all 12 mer sequences from alpha-gliadin, including sequences where glutamine was substituted with glutamate, as described above (see, e.g., FIGS. 15 and 16). A reduction reaction was performed to remove the disulfide bonds that exist between cysteine residues. This reaction was not performed when epitopes involving cyclic peptides based on cysteine bonds are needed. Dithiothreitol was prepared in a concentration of 0.1 g per 20 mL PBS-Tween (PBST). The peptide microarray (herein referred to as the peptide chip) was immersed in the DTT solution and placed in a nitrogen atmosphere at a pressure of 40 Pa at room temperature for 1 hour. […]
The peptide array was then analyzed to detect antibody/peptide complexes. […]
A set of 12-mer sequences generating weakly or strongly positive binding signals to celiac positive samples was compiled (see, e.g., Table A in Appendix A of U.S. Provisional Application No. 61/761,347, incorporated herein by reference). Using a computer programmed to undertake sequence analysis, subsequences present within this set of 12-mer sequences were determined using a series of sliding windows having a minimum length of 3 amino acids and maximum length of 11 amino acids. […]

Row | Substance | subsequence identified for antibody binding [1] | immune dominant subsequence (epitope) for antibody response amongst celiac positive subjects ([2]; alpha-gliadin 12-mer array incl. deamidated sequences, celiac positive samples) | sample binding hits ([2]; celiac-positive serum sample, IgA binding, FIG. 18, Row QPE, Column QPF)
1 | PQQPEQII | key subsequence for antibody binding |  | 
2 | QPEQPF [QPE-QPF] |  | key immune dominant subsequence | 91.78%

Reference: patent US11565231B2, “Substrates, peptide arrays, and methods” (Vibrant Holdings, LLC, priority 2012, dated 2023)
